Assay [1] has as its target T1, ERα (Homo sapiens, UniProt P03372).
T1 sequence (P03372 1-595): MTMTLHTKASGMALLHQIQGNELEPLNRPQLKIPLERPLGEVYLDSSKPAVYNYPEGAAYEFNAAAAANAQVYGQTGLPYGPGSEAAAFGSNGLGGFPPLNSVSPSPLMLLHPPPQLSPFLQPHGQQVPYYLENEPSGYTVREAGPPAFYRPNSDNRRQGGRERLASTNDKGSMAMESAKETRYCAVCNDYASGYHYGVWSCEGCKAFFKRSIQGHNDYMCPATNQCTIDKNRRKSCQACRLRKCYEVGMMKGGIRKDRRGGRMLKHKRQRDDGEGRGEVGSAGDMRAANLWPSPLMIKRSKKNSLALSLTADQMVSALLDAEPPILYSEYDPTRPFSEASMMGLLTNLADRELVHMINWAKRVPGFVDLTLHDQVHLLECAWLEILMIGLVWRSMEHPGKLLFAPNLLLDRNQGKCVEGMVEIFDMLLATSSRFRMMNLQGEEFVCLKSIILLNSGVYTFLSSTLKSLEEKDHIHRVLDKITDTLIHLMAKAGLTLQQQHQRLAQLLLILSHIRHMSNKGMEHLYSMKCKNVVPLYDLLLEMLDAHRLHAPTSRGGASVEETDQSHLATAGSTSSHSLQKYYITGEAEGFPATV
Description: ERE luciferase reporter gene assay in T47D-KBluc cells (target engagement). The note with it: 10% FBS, 24 hours, Table 3 cereblon centric PROTACs, read-out: ER-α Luciferase IC50. On the set-up: T47D human breast cancer cells stably transfected with estrogen responsive element/promoter/luciferase reporter gene; host or cells: T47D-KBluc cells. Format: cell-based. In short, it runs like this:
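T47D-KBluc breast cancer cells, which carry a stable ERE-luciferase reporter, were grown in RPMI with 10% FBS (about 10 pM estrogen) and exposed to PROTACs for 24 h. The 12-point, 3-fold series ran from 300 nM to 2 pM. Luciferase was read after lysis, and IC50 was fitted from duplicates.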

Assay [2] concerns the target T1, ERα. Description: Estrogen receptor-alpha (ERα) degradation assay in MCF7 cells using In-Cell Western assay. In kind it is cell-based. Also noted: assessed for their activity in degrading ERα in MCF-7 cells via western blot; endogenous in cells; host or cells: MCF7 cells. The note with it: ER-alpha degradation in MCF7 cells, 5 days of incubation. Here is the method:
Estrogen Receptor-Alpha (ERα) Degradation Assay Using in-Cell Western™ Assay for Table 5.
Degradation of ERα by claimed compounds were determined in MCF7 cells using an In-Cell Western™ assay. Briefly, MCF7 cells were plated in 96-well plates (2000 cells per well in 100 μl media) and incubated at 37° C. under an atmosphere of 5% CO2 in a humidified incubator overnight. One-hundred (100) μI of media containing test compound (at 2x concentration) was added to the appropriate wells to provide 11 serially decreasing concentrations (top final concentration, 1 μM then 3-fold less for the next 10 concentrations); a vehicle control (DMSO) was also added for each compound. For each experiment, all compounds were assayed on duplicate plates. Cells were then incubated for 3 or 5 days in the above-mentioned environment. The assay was terminated by removal of media, a single wash with ice-cold PBS and the addition of 50 μl paraformaldehyde (PFA: 4% in PBS). After 15 minutes in PFA at room temperature, the cells were permeabilized in Tris-phosphate-buffered saline with Tween (0.1%) (TBST) supplemented with Triton X-100 (0.5%) for 15 minutes. Cells were then blocked in BSA (TBST with BSA, 3%) for one hour. Primary antibodies for the detection of ERa (rabbit monoclonal, 1:1000, Cell Signaling Technology Catalog #8644) and tubulin (mouse monoclonal, 1:5000, Sigma Catalog #T6074) in TBST with BSA (3%) were added. The cells were incubated overnight at 4° C. The cells were then washed thrice with TBST at room temperature and then incubated with anti-rabbit and anti-mouse fluorescently-labelled secondary antibodies (IRDye®; LI-COR; Lincoln, Nebr.) in LI-COR blocking buffer (Catalog #927-50000) for one hour at room temperature. Following 3 washes with TBST, the buffer was removed and the plates were read on an Odyssey® infrared imaging system (LI-COR®, Lincoln, Nebr.) at 700 nm and 800 nm. Using commercial software (ImageStudio™; LI-COR, Lincoln, Nebr.), the staining intensity for ERa and tubulin in each well was quantified and exported for analysis. For each data point, ERa intensity was normalized to tubulin intensity and for each compound all normalized intensity values were normalized to the vehicle control. DC50 and Dmax values were determined following a 4-parameter IC50 curve fit using ACAS dose response module (McNeil & Co Inc.).

The values that follow come from patent US11384063B2, “Modulators of estrogen receptor proteolysis and associated methods of use” (Arvinas Operations, Inc., priority 2017, dated 2022).

Where only a bound is given, the exact number is not on record here.

Take `O=C1CCC(N2C(=O)c3ccc(N4CCN([C@H]5C[C@H](Oc6ccc(Oc7c(-c8ccc(Br)cc8)sc8cc(O)ccc78)cc6)C5)CC4)cc3C2=O)C(=O)N1` (stereo partly drawn) [Compound 223, trans-5-[4-[3-[4-[2-(4-bromophenyl)-6-hydroxy-benzothiophen-3-yl]oxyphenoxy]cyclobutyl]piperazin-1-yl]-2-(2,6-dioxo-3-piperidyl)isoindoline-1,3-dione]: the IC50 at ERα [1] worked out at 41.1 nM. On ERα [2], the DC50 is 10 to 100 nM and the Dmax is > 75%.
`O=C1CCC(N2Cc3cc(N4CCN(C5CCN(CCOc6ccc(Oc7c(-c8ccc(Br)cc8)sc8cc(O)ccc78)cc6)CC5)CC4)ccc3C2=O)C(=O)N1` (centres unmarked) [Compound 194, 3-[5-[4-[1-[2-[4-[2-(4-bromophenyl)-6-hydroxybenzothiophen-3-yl]oxyphenoxy]ethyl]-4-piperidyl]piperazin-1-yl]-1-oxo-isoindolin-2-yl]piperidine-2,6-dione]: the IC50 at ERα [1] is 3.9 nM. At ERα [2], the DC50 was 1 to 10 nM and the Dmax is > 75%.
As for `O=C1CCC(N2Cc3nc(N4CCN(CC5CCN(c6ccc(Oc7c(-c8ccc(F)cc8)sc8cc(O)ccc78)cc6)CC5)CC4)ccc3C2=O)C(=O)N1` (centres unmarked) [Compound 230, 3-[2-[4-[[1-[4-[2-(4-fluorophenyl)-6-hydroxy-benzothiophen-3-yl]oxyphenyl]-4-pipendyl]methyl]piperazin-1-yl]-5-oxo-7H-pyrrolo[3,4-b]pyridin-6-yl]piperidine-2,6-dione], on ERα [1], the IC50 was found to be 1.1 nM. In addition, on ERα [2], the DC50 is 1 to 10 nM and the Dmax is > 75%.
`O=C1CCC(N2Cc3nc(N4CCN(CC5CCN(c6ccc(Oc7c(-c8ccc(Br)cc8)sc8cc(O)ccc78)cc6)CC5)CC4)ccc3C2=O)C(=O)N1` (centres unmarked) [Compound 235, 3-[2-[4-[[1-[4-[2-(4-bromophenyl)-6-hydroxy-benzothiophen-3-yl]oxyphenyl]-4-piperidyl]methyl]piperazin-1-yl]-5-oxo-7H-pyrrolo[3,4-b]pyridin-6-yl]piperidine-2,6-dione]: at ERα [1], the IC50 came out at 6.9 nM. On ERα [2], the DC50 lay within 1 to 10 nM and the Dmax is > 75%.
In the case of `O=C1CCC(N2Cc3nc(N4CCN(CC5CCN(c6ccc(Oc7c(-c8ccc(Br)cc8)sc8cc(O)ccc78)cc6F)CC5)CC4)ccc3C2=O)C(=O)N1` (centres unmarked) [Compound 239], the IC50 at ERα [1] was determined as 13.5 nM. On ERα [2], the DC50 fell in the range of 10 to 100 nM and the Dmax is > 75%.
Take `O=C1CCC(N2C(=O)c3ccc(NCCCN4CCCN(CCOc5ccc(Oc6c(-c7ccc(Br)cc7)sc7cc(O)ccc67)cc5)CC4)cc3C2=O)C(=O)N1` (centres unmarked) [Compound 178, 5-[3-[4-[2-[4-[2-(4-bromophenyl)-6-hydroxy-benzothiophen-3-yl]oxyphenoxy]ethyl]-1,4-diazepan-1-yl]propylamino]-2-(2,6-dioxo-3-piperidyl)isoindoline-1,3-dione]: at ERα [1], the concentration for half-maximal inhibition (IC50) was 2.4 nM. At ERα [2], the DC50 lay in the range of 1 to 10 nM and the Dmax was > 75%.
For the compound `O=C1CCC(N2Cc3cc(N4CCN(CCCOc5ccc(Oc6c(-c7ccc(OC(F)(F)F)cc7)sc7cc(O)ccc67)cc5)CC4)ccc3C2=O)C(=O)N1` (centres unmarked) [Compound 217, 3-[5-[4-[3-[4-[6-hydroxy-2-[4-(trifluoromethoxy)phenyl]benzothiophen-3-yl]oxyphenoxy]propyl]piperazin-1-yl]-1-oxo-isoindolin-2-yl]piperidine-2,6-dione], the IC50 at ERα [1] is 7.5 nM. On ERα [2], this compound returned a DC50 of 1 to 10 nM and a Dmax of 50 to 75%.
As to `COc1ccc(-c2sc3cc(O)ccc3c2Oc2ccc(OCCN3CCN(CCCNc4ccc5c(c4)CN(C4CCC(=O)NC4=O)C5=O)CC3)cc2)cc1` (centres unmarked) [Compound 180, 3-[5-[3-[4-[2-[4-[6-hydroxy-2-(4-methoxyphenyl)benzothiophen-3-yl]oxyphenoxy]ethyl]piperazin-1-yl]propylamino]-1-oxo-isoindolin-2-yl]piperidine-2,6-dione], the IC50 on ERα [1] turned out to be 0.22 nM. On ERα [2], the DC50 was < 1 nM and the Dmax is > 75%.
For `O=C1CCC(N2Cc3cc(N4CCN(CCCOc5ccc(Oc6c(-c7ccc(F)cc7)sc7cc(O)ccc67)cc5)CC4)ccc3C2=O)C(=O)N1` (centres unmarked) [Compound 220, 3-[5-[4-[3-[4-[2(4-fluorophenyl)-6-hydroxybenzothiophen-3-yl]oxyphenoxy]propyl]piperazin-1-yl]-1-oxo-isoindolin-2-yl]piperidine-2,6-dione], in that order: 1.5 nM, 1 to 10 nM and 50 to 75%.
For `O=C1CCC(N2C(=O)c3ccc(N4CCN(CC5CCN(c6ccc(Oc7c(-c8ccc(F)cc8)sc8cc(O)ccc78)cc6)CC5)CC4)cc3C2=O)C(=O)N1` (centres unmarked) [Compound 227, 2-(2,6-dioxo-3-piperidyl)-5-[4-[[1-[4-[2-(4-fluorophenyl)-6-hydroxy-benzothiophen-3-yl]oxyphenyl]-4-piperidyl]methyl]piperazin-1-yl]isoindoline-1,3-dione], in that order: 7 nM, 1 to 10 nM and > 75%.
Regarding `O=C1CCC(N2Cc3c(cc(F)c(N4CCN(C5CCN(CCOc6ccc(Oc7c(-c8ccc(Br)cc8)sc8cc(O)ccc78)cc6)CC5)CC4)c3F)C2=O)C(=O)N1` (centres unmarked) [Compound 205, 3-[5-[4-[1-[2-[4-[2-(4-bromophenyl)-6-hydroxybenzothiophen-3-yl]oxyphenoxy]ethyl]-4-piperidyl]piperazin-1-yl]-4,6-difluoro-1-oxo-isoindolin-2-yl]piperidine-2,6-dione], on ERα [1], the IC50 came to 3.5 nM. Moreover, at ERα [2], the DC50 lay in the range of 10 to 100 nM and the Dmax was > 75%.
With `O=C1CCC(N2C(=O)c3ccc(N4CCC(CN5CC(c6ccc(Oc7c(-c8ccc(Br)cc8)sc8cc(O)ccc78)cc6)C5)CC4)cc3C2=O)C(=O)N1` (centres unmarked) [Compound 214], on ERα [1], the IC50 is 10.4 nM. Further, on ERα [2], the DC50 was in the range of 1 to 10 nM and the Dmax is 50 to 75%.
On to `O=C1CCC(N2C(=O)c3ccc(N4CC(N5CCC(Oc6ccc(Oc7c(-c8ccc(Br)cc8)sc8cc(O)ccc78)cc6)CC5)C4)cc3C2=O)C(=O)N1` (centres unmarked) [Compound 213, 5-[3-[4-[4-[2-(4-bromophenyl)-6-hydroxybenzothiophen-3-yl]oxyphenoxy]-1-pipendyl]azetidin-1-yl]2-(2,6-dioxo-3-piperidyl)isoindoline-1,3-dione], for which, on ERα [1], the IC50 was 11.2 nM. Also, the Dmax at ERα [2] was < 50%.
Consider `O=C1CCC(N2Cc3cc(N4CCN(CC5CCN(c6ccc(Oc7c(-c8ccc(O)cc8)sc8cc(O)ccc78)cc6)CC5)CC4)ccc3C2=O)C(=O)N1` (centres unmarked) [Compound 244, 3-[5-[4-[[1-[4-(6-hydroxy-2-(4-hydroxyphenyl)benzothiophen-3-yl]oxyphenyl]-4-piperidyl]methyl]piperazin-1-yl]-1-oxo-isoindolin-2-yl]piperidine-2,6-dione], for which the IC50 at ERα [1] worked out at 0.18 nM. Besides, at ERα [2], the DC50 is 1 to 10 nM and the Dmax lay in the range of 50 to 75%.
